Test results as given in US20130123358A1, “Metabolic Benefits to Butyrate as a Chronic Diet Supplement” (priority 2009, published 2013).

Assays:
[1] = tested on: HDAC; experiment: Histone Deacetylase Assay Kit, inhibition by butyrate isoforms; conditions: Histone Deacetylase Assay Kit (Upstate), FIG. 8
From the text: Several isoforms of butyrate were purchased (Sigma Aldrich Chemicals, St. Louis, Mo.) and tested for inhibitory activity of HDAC, using a Histone Deacetylase Assay Kit (Upstate Biotechnology, Lake Placid, N.Y.).

[2] = tested on: C57BL/6J mice on high fat diet; experiment: TSA in HFD-fed mice (body weight, ITT, insulin signaling, muscle fiber); format: in vivo, mouse; conditions: TSA 0.6 ug/kg/day i.p.
Procedure: Sodium butyrate was administrated through dietary supplementation. Sodium butyrate (#303410, Sigma) was incorporated into the HFD evenly through blending the diet and sodium butyrate together at 400 rpm in a food processor. Sodium butyrate (50 g) was used in 1 kg diet to reach a dose of 5% w/w. The sodium butyrate containing diet was pelleted and stored in a −20° C. freezer. Trichostatin A (TSA) (T-1052, A.G. Scientific Inc. San Diego, Calif.) was dissolved in DMSO, and diluted in 0.9% saline at 2:98 ratio. The TSA solution (200 ul) was administrated by intra-peritoneal (i.p.) injection to reach a dose of […]. The control mice were administrated with the same volume of vehicle. 50 ml of tributyrin (#113026, Sigma) was incorporated into one kilogram of Chow diet in powder to reach a dose of 5% w/w in mice.
Trichostatin A (TSA) is a well-established HDAC inhibitor that is frequently used in the study of HDACs. The data presented above indicate that the metabolic activity of butyrate may be in part related to inhibition of HDACs. TSA activity was examined in the same model of murine obesity. TSA was administrated through daily i.p. injection during HFD feeding to C57BL/6J mice. The control mice were injected with an identical volume of PBS.
The mice at 5 weeks in age were fed HFD to induce obesity, and TSA was administrated at the dose of 0.6 ug/kg/day. The effects of TSA treatment were tested after 12-13 weeks. […] FIG. 11C indicates the insulin signaling in the gastrocnemius muscle. The muscle was isolated after insulin (0.75 U/kg) injection for 30 minutes and used to prepare whole cell lysate for immunoblot. IRS-1 and Akt were examined for tyrosine (Y632) and serine (S473) phosphorylation.
In addition, the vastus laterais muscle was isolated from the mice at 13 weeks on HFD, and used to make serial cryostat sections of muscle. The muscle slides made from vastus lateralis, gastrocnemius (gastr.) and soleus muscle were stained with antibody against the type I myosin heavy chain in the oxidative fiber. The photograph was taken at 20× magnification. The whole cell lysate was prepared from gastrocnemius muscle and analyzed in an immunoblot. PGC-1α, type I myosin heavy chain (Myosin) and myoglobin were blotted with specific antibodies, and the results shown in FIG. 11D. The results in FIGS. 11A-11D are the mean±SE (n=8 in each group). *P<0.05 (vs. control).

[3] = tested on: HDAC; experiment: Histone deacetylase assay on muscle nuclear extracts of treated mice; format: in vivo, mouse; conditions: TSA-treated mice on HFD, positive control
Procedure: Histone deacetylase assay were conducted according to the instruction from the manufacturer (#17-320, Upstate). Briefly, 10 ug of muscle nuclear extract (as an enzyme) was incubated with [3H]-acetyl CoA (#TRK688, Amersham) radio labeled histone H4 peptide (25,000 CPM, as a substrate) at 37° C. for 12 hours by shaking Released [3H]-acetate was measured using a scintillation counter. The nuclear extract was prepared according to a protocol described elsewhere (17). The muscle tissues were collected and snap-frozen in liquid nitrogen within 2 min of cervical dislocation of mice. Tissue samples were stored at −80° C. until further processing. The muscle sample of 200˜300 mg was cut into small pieces on dry ice and homogenized in 1 ml of lysate buffer. After centrifugation at 10,000 rpm for 1 minute at 4° C., the nucleus was pelleted and collected. After being washed, the nucleus pellet was treated with extraction buffer. The supernatant was collected for nuclear protein after centrifugation at 14,000 rpm for 5 minutes at 4° C.
Without wishing to be bound by this theory, one activity of butyrate could be related to inhibition of HDAC. Sodium butyrate inhibits the class I and class II histone deacetylases (HDACs). To test this possibility, HDAC activity was examined in the skeletal muscle of mice at 16 weeks on HFD (FIG. 7G). The assay was conducted with the nuclear extracts of muscle samples. […]

[4] = tested on: ob/ob mice; experiment: Tributyrin in ob/ob genetically obese mice; format: in vivo, mouse; conditions: tributyrin 5 g/kg body weight/day in chow diet
Procedure: Male C57BL/6J (4 weeks in age) and ob/ob mice (4 weeks in age) were purchased from the Jackson Laboratory (Bar Harbor, Me.). After one week quarantine, the C57BL/6J mice were fed on the high fat diet (HFD, D12331, Research Diets, New Brunswick, N.J.), which contains 58% calories in fat. The ob/ob mice were fed on Chow diet (5001, Lab Diet) that contains 13.4% calories in fat. All of the mice were housed in the animal facility with a 12:12-h light-dark cycle and constant temperature (22-24° C.). The mice were free to access water and diet. All procedures were performed in accordance with National Institute of Health guidelines for the care and use of animals and approved by the Institute Animal Care and Use Committee at the Pennington Biomedical Research Center.
Sodium butyrate was administrated through dietary supplementation. Sodium butyrate (#303410, Sigma) was incorporated into the HFD evenly through blending the diet and sodium butyrate together at 400 rpm in a food processor. Sodium butyrate (50 g) was used in 1 kg diet to reach a dose of 5% w/w. The sodium butyrate containing diet was pelleted and stored in a −20° C. freezer. […]
To test effect of different forms of butyric acid, tributyrin was used in the ob/ob genetically obese mice model. […] After 2 weeks, body weight was measured and an insulin tolerance test was given. […]

[5] = tested on: C57BL/6J mice on chow diet; experiment: Amyl butyrate in mice on chow diet for 4 months; format: in vivo, mouse; conditions: amyl butyrate 5 g/kg BW/day in chow diet
Procedure: Amyl butyrate was administrated at 5 g/kg BW/day in C57BL/6J mice for 4 months. The amyl butyrate was added to the chow diet. […] FIGS. 14B and 14C show the body fat and muscle content measured by NMR as described above. […] In FIGS. 14A-14E, values are the mean±SE (n=7). *P<0.05, **P<0.001 compared to the control by Student's t test.

Q: How did the “inhibitory activity of HDAC” value [1] turn out when `CCCCOC(=O)CCC` [butyl butyrate] was run?
A: inhibited HDAC

Q: Which “inhibitory activity of HDAC” value [1] does the source give for `CCCCCCCOC(=O)CCC` [heptyl butyrate] here?
A: inhibited HDAC

Q: With `CCCC(=O)OCC(C)C` [isobutyl butyrate] as the compound, how does the “inhibitory activity of HDAC” value [1] read?
A: inhibited HDAC

Q: `CC(C)C(O)C(=O)O` (stereo not shown) [2-hydroxy-3-methylbutanoic acid] was tested. Which “inhibitory activity of HDAC” value [1] did it give?
A: inhibited HDAC

Q: `CC(/C=C/C(=O)NO)=C\[C@@H](C)C(=O)c1ccc(N(C)C)cc1` [TSA, Trichostatin A] was tested. Which “body weight, less than control” value ([2]; 12 weeks on HFD) did it give?
A: 16%

Q: What about the “insulin tolerance (ITT)” value ([2]; 12 weeks on HFD, 4 hour fast) of the same compound?
A: significantly improved

Q: What about the “expression of type I myosin heavy chain in gastrocnemius and soleus (histology)” value ([2]; 13 weeks on HFD) of the same compound?
A: increased

Q: And the “oxidative fiber ratio in skeletal muscle” value ([2]; 13 weeks on HFD)?
A: increased

Q: What about the “insulin-induced signaling (IRS-1 Y632, Akt S473 phosphorylation) in gastrocnemius muscle” value ([2]; 30 minutes after insulin 0.75 U/kg) of the same compound?
A: significantly improved

Q: And the “PGC-1α protein in gastrocnemius muscle” value ([2]; immunoblot)?
A: all increased

Q: And the “myoglobin protein in gastrocnemius muscle” value ([2]; immunoblot)?
A: all increased

Q: What about the “type I myosin heavy chain protein in gastrocnemius muscle” value ([2]; immunoblot) of the same compound?
A: all increased

Q: What about the “HDAC activity in skeletal muscle” value [3] of the same compound?
A: decreased

Q: For `CCCC(=O)OCc1ccccc1` [benzyl butyrate], which “inhibitory activity of HDAC” value [1] is on record?
A: inhibited HDAC

Q: For `CCCC(=O)OCCc1ccccc1` [pennetyl butyrate], which “inhibitory activity of HDAC” value [1] is on record?
A: inhibited HDAC

Q: Which results are given for `CCCC(=O)OCC(COC(=O)CCC)OC(=O)CCC` [tributyrin]?
A: weight gain ([4]; 2 weeks, vs control): significantly reduced; insulin sensitivity (ITT) ([4]; 4 hours fasting): preserved

Q: How did the “inhibitory activity of HDAC” value [1] turn out when `CCCC(=O)OC(C)c1ccccc1` (stereo not shown) [a-methylbenzyl butyrate] was run?
A: inhibited HDAC

Q: Which “inhibitory activity of HDAC” value [1] does the source give for `CCCCCCOC(=O)CCC` [hexyl butyrate] here?
A: inhibited HDAC

Q: Which results are given for `CCCCCOC(=O)CCC` [amyl butyrate]?
A: inhibitory activity of HDAC [1]: inhibited HDAC; body weight gain [5]: prevented body weight gain; insulin resistance (fasting glucose and ITT) [5]: protected the mice from insulin resistance; body fat gain ([5]; NMR): prevented fat gain; lean body mass ([5]; NMR): without affecting lean body mass

Q: Which “inhibitory activity of HDAC” value [1] does the source give for `CCCC(=O)OC` [methyl butyrate] here?
A: inhibited HDAC
